For the first assay, the system named is Bel-7402. Put plainly: Antiproliferative activity against human Bel7402 cells by MTT assay. The class given is functional. In general terms: Formazan colour is commonly taken as a measure of viable cells.
For `CC(=O)O[C@H]1C[C@@H]2[C@@]3(C)CCC[C@@]4(C[C@@H]4C)[C@@H]3CC[C@@]2(C)[C@@H]2CCC3=C(C(=O)O[C@@H]3C)[C@@]12C`, the GI50 was more than 30 µM.
`CCC(=O)O[C@H]1C[C@@H]2[C@@]3(C)CCC[C@@]4(C[C@@H]4C)[C@@H]3CC[C@@]2(C)[C@@H]2CCC3=C(C(=O)O[C@H]3C)[C@@]12C` displayed a GI50 of more than 30 µM.
On the same count and under the same terms, the same measure for `CC[C@@]1(C)CCC[C@]2(C)[C@H]3C[C@H](O)[C@]4(C)C5=C(CC[C@H]4[C@]3(C)CC[C@@H]12)C(=O)C[C@H]5O`: more than 30 µM; for `CC(=O)C1=C[C@@]2(C)[C@@H](OC(=O)CC(C)O)C[C@H]3[C@@](C)(CC[C@@H]4[C@]3(C)CCC[C@@]43C[C@@H]3C)[C@@H]2C[C@H]1O` (stereo partly drawn): 11 µM; for `CC[C@@]1(C)CCC[C@]2(C)[C@H]3C[C@H](OC(=O)CC(C)O)[C@]4(C)C=C(C(C)=O)[C@H](O)C[C@H]4[C@]3(C)CC[C@@H]12` (stereo partly drawn): more than 30 µM.
`CC/C1=C/CO[C@@]2(C)[C@@H](O)C[C@@H]3[C@@]4(C)CCC[C@](C)(CC)[C@@H]4CC[C@@]3(C)[C@@H]2CC1` gave a GI50 of more than 30 µM.
As to `CC[C@@]1(C)CCC[C@]2(C)[C@H]3C[C@H](OC(=O)CC(C)O)[C@]45C[C@@H](O)[C@H]4C(C(C)=O)=CC[C@H]5[C@]3(C)CC[C@@H]12` (stereo partly drawn), it took 14 µM to inhibit growth by half (GI50).

For another assay, the system named is K562. Put plainly: Antiproliferative activity against human K562 cells by MTT assay. The class given is functional.
`CC(=O)O[C@H]1C[C@@H]2[C@@]3(C)CCC[C@@]4(C[C@@H]4C)[C@@H]3CC[C@@]2(C)[C@@H]2CCC3=C(C(=O)O[C@@H]3C)[C@@]12C` registered a GI50 of more than 30 µM.
On to `CCC(=O)O[C@H]1C[C@@H]2[C@@]3(C)CCC[C@@]4(C[C@@H]4C)[C@@H]3CC[C@@]2(C)[C@@H]2CCC3=C(C(=O)O[C@H]3C)[C@@]12C`, for which the GI50 is more than 30 µM.
`CC[C@@]1(C)CCC[C@]2(C)[C@H]3C[C@H](O)[C@]4(C)C5=C(CC[C@H]4[C@]3(C)CC[C@@H]12)C(=O)C[C@H]5O` returned a GI50 of more than 30 µM.
Take `CC[C@@]1(C)CCC[C@]2(C)[C@H]3C[C@H](OC(=O)CC(C)O)[C@]4(C)C=C(C(C)=O)[C@H](O)C[C@H]4[C@]3(C)CC[C@@H]12` (stereo partly drawn): the GI50 was more than 30 µM.
Turning to `CC/C1=C/CO[C@@]2(C)[C@@H](O)C[C@@H]3[C@@]4(C)CCC[C@](C)(CC)[C@@H]4CC[C@@]3(C)[C@@H]2CC1`, the concentration for 50% growth inhibition (GI50) was more than 30 µM.
`CC[C@@]1(C)CCC[C@]2(C)[C@H]3C[C@H](OC(=O)CC(C)O)[C@]45C[C@@H](O)[C@H]4C(C(C)=O)=CC[C@H]5[C@]3(C)CC[C@@H]12` (stereo partly drawn) came in with a GI50 of 11 µM.

A further assay deals with HCT-116. Description: Antiproliferative activity against human HCT116 cells by MTT assay. The class given is functional.
`CC(=O)O[C@H]1C[C@@H]2[C@@]3(C)CCC[C@@]4(C[C@@H]4C)[C@@H]3CC[C@@]2(C)[C@@H]2CCC3=C(C(=O)O[C@@H]3C)[C@@]12C` displayed a GI50 of more than 30 µM.
`CCC(=O)O[C@H]1C[C@@H]2[C@@]3(C)CCC[C@@]4(C[C@@H]4C)[C@@H]3CC[C@@]2(C)[C@@H]2CCC3=C(C(=O)O[C@H]3C)[C@@]12C` displayed a GI50 of more than 30 µM.
The compound `CC[C@@]1(C)CCC[C@]2(C)[C@H]3C[C@H](O)[C@]4(C)C5=C(CC[C@H]4[C@]3(C)CC[C@@H]12)C(=O)C[C@H]5O` yielded a GI50 of more than 30 µM.
On the same count and under the same terms, the value for `CC(=O)C1=C[C@@]2(C)[C@@H](OC(=O)CC(C)O)C[C@H]3[C@@](C)(CC[C@@H]4[C@]3(C)CCC[C@@]43C[C@@H]3C)[C@@H]2C[C@H]1O` (stereo partly drawn) was 6.4 µM; that for `CC[C@@]1(C)CCC[C@]2(C)[C@H]3C[C@H](OC(=O)CC(C)O)[C@]4(C)C=C(C(C)=O)[C@H](O)C[C@H]4[C@]3(C)CC[C@@H]12` (stereo partly drawn) was more than 30 µM; that for `CC/C1=C/CO[C@@]2(C)[C@@H](O)C[C@@H]3[C@@]4(C)CCC[C@](C)(CC)[C@@H]4CC[C@@]3(C)[C@@H]2CC1` was more than 30 µM.
For the compound `CC[C@@]1(C)CCC[C@]2(C)[C@H]3C[C@H](OC(=O)CC(C)O)[C@]45C[C@@H](O)[C@H]4C(C(C)=O)=CC[C@H]5[C@]3(C)CC[C@@H]12` (stereo partly drawn), it took 14 µM to inhibit growth by half (GI50).

A further assay concerns Jurkat. Put plainly: Antiproliferative activity against human Jurkat cells by MTT assay. In kind it is functional.
Compound `CC(=O)O[C@H]1C[C@@H]2[C@@]3(C)CCC[C@@]4(C[C@@H]4C)[C@@H]3CC[C@@]2(C)[C@@H]2CCC3=C(C(=O)O[C@@H]3C)[C@@]12C` had a GI50 of more than 30 µM.
For `CCC(=O)O[C@H]1C[C@@H]2[C@@]3(C)CCC[C@@]4(C[C@@H]4C)[C@@H]3CC[C@@]2(C)[C@@H]2CCC3=C(C(=O)O[C@H]3C)[C@@]12C`, the GI50 was more than 30 µM.
With `CC[C@@]1(C)CCC[C@]2(C)[C@H]3C[C@H](O)[C@]4(C)C5=C(CC[C@H]4[C@]3(C)CC[C@@H]12)C(=O)C[C@H]5O`, the GI50 is more than 30 µM.
On to `CC(=O)C1=C[C@@]2(C)[C@@H](OC(=O)CC(C)O)C[C@H]3[C@@](C)(CC[C@@H]4[C@]3(C)CCC[C@@]43C[C@@H]3C)[C@@H]2C[C@H]1O` (stereo partly drawn), for which the GI50 worked out at 13 µM.
`CC[C@@]1(C)CCC[C@]2(C)[C@H]3C[C@H](OC(=O)CC(C)O)[C@]4(C)C=C(C(C)=O)[C@H](O)C[C@H]4[C@]3(C)CC[C@@H]12` (stereo partly drawn) had a GI50 of more than 30 µM.
On the same count and under the same terms, the value for `CC/C1=C/CO[C@@]2(C)[C@@H](O)C[C@@H]3[C@@]4(C)CCC[C@](C)(CC)[C@@H]4CC[C@@]3(C)[C@@H]2CC1` was more than 30 µM.

In the next assay the test system is A549. Description: Antiproliferative activity against human A549 cells by MTT assay. In kind it is functional.
`CC(=O)O[C@H]1C[C@@H]2[C@@]3(C)CCC[C@@]4(C[C@@H]4C)[C@@H]3CC[C@@]2(C)[C@@H]2CCC3=C(C(=O)O[C@@H]3C)[C@@]12C` yielded a GI50 of more than 30 µM.
Regarding `CCC(=O)O[C@H]1C[C@@H]2[C@@]3(C)CCC[C@@]4(C[C@@H]4C)[C@@H]3CC[C@@]2(C)[C@@H]2CCC3=C(C(=O)O[C@H]3C)[C@@]12C`, the GI50 was more than 30 µM.
Regarding `CC[C@@]1(C)CCC[C@]2(C)[C@H]3C[C@H](O)[C@]4(C)C5=C(CC[C@H]4[C@]3(C)CC[C@@H]12)C(=O)C[C@H]5O`, the GI50 is more than 30 µM.
With `CC(=O)C1=C[C@@]2(C)[C@@H](OC(=O)CC(C)O)C[C@H]3[C@@](C)(CC[C@@H]4[C@]3(C)CCC[C@@]43C[C@@H]3C)[C@@H]2C[C@H]1O` (stereo partly drawn), the GI50 came to 8.1 µM.
The compound `CC[C@@]1(C)CCC[C@]2(C)[C@H]3C[C@H](OC(=O)CC(C)O)[C@]4(C)C=C(C(C)=O)[C@H](O)C[C@H]4[C@]3(C)CC[C@@H]12` (stereo partly drawn) had a GI50 of more than 30 µM.
For `CC/C1=C/CO[C@@]2(C)[C@@H](O)C[C@@H]3[C@@]4(C)CCC[C@](C)(CC)[C@@H]4CC[C@@]3(C)[C@@H]2CC1`, the GI50 was more than 30 µM.
On the same count and under the same terms, the value for `CC[C@@]1(C)CCC[C@]2(C)[C@H]3C[C@H](OC(=O)CC(C)O)[C@]45C[C@@H](O)[C@H]4C(C(C)=O)=CC[C@H]5[C@]3(C)CC[C@@H]12` (stereo partly drawn) was 12 µM.

What is called GI50 is the concentration at which growth is held to half of that of the control. Lower therefore signals more potent growth inhibition.

The record behind these values is ChEMBL document CHEMBL4602669, “Bishomoscalarane Sesterterpenoids from the Sponge Dysidea granulosa Collected in the South China Sea” (2020).
